Marks after values point to notes of the source that are not given here.
System: rumen fluid
Assay: in vitro batch culture ruminal fermentation
Type: cell-based, steer
Settings: for decrease of methane production compared to the control diet: dose effect experiment; for Hydrogen / Methane / NH3—N / TVFA (total volatile fatty acids) / Total Gas / VFA C2 (acetate) / VFA C3 (propionate) / VFA C4 (butyrate) / VFA C5 (valerate) / VFA Ci4 (isobutyrate) / VFA Ci5 (isovalerate): high sulfur diet (1.09% S), 24 h, MoO4 25 ppm, M 5 ppm, M + AQ 5 + 10 ppm
[1] = AQ 10 ppm, Ionophores 5 ppm, AQ plus Ionophore 10 + 5 ppm
[2] = intermediate and high levels of 9,10 AQ, P<0.05

Row | Compound | Methane Concentration [1] [Umole/24 hr. fermentation] | Hydrogen (AQ 10 ppm) | Methane (AQ 10 ppm) | NH3—N (AQ 10 ppm) | TVFA (total volatile fatty acids) (AQ 10 ppm) | Total Gas (AQ 10 ppm) | VFA C2 (acetate) (AQ 10 ppm) | VFA C3 (propionate) (AQ 10 ppm) | VFA C4 (butyrate) (AQ 10 ppm) | VFA C5 (valerate) (AQ 10 ppm) | VFA Ci4 (isobutyrate) (AQ 10 ppm) | VFA Ci5 (isovalerate) (AQ 10 ppm) | also measured
1 | O=C1c2ccccc2C(=O)c2ccccc21 [AQ, 9,10-anthraquinone] | 265 | 4.27^ab μMoles/24 h fermentation | 265^b μMoles/24 h fermentation | 37.2^a mg/dl | 118.0^c mM | 89.2^cb mL/24 h fermentation | 48.4^d moles/100 mol | 28.1^b moles/100 mol | 17.3^a moles/100 mol | 3.3^b moles/100 mol | 1.2^ab moles/100 mol | 1.7^b moles/100 mol | Total VFA relative to the control and untreated high sulfur diet (9,10 AQ dose effect experiment): numerically but not statistically decreased; hydrogen concentration (9,10 AQ dose effect experiment): unaffected; decrease of methane production compared to the control diet (10 ppm 9,10 AQ): 21%; decrease of methane production compared to the control diet (25 ppm 9,10 AQ): 41%; activity at 10 ppm (AQ 10 ppm, Ionophores 5 ppm, AQ plus Ionophore 10 + 5 ppm, control = 403, read-out: Methane concentration, Percent of Control): 66%; ammonia-N (highest level of 9,10 AQ, P<0.05): decreased; percentages of C3, C4 and C5 (intermediate and high levels of 9,10 AQ): increased; molar proportion of C2 [2]: decreased; total gas produced [2]: decreased; effect on fermentation end-products compared to the untreated diets (low level of 9,10 AQ (1 ppm)): no effect
2 | CC[C@@]1([C@H]2O[C@H]([C@H]3O[C@@](O)(CO)[C@H](C)C[C@@H]3C)C[C@H]2C)CC[C@H]([C@@]2(C)CC[C@]3(C[C@H](O)[C@@H](C)[C@@H]([C@H](C)[C@H](OC)[C@@H](C)C(=O)[O-])O3)O2)O1.[Na+] [M, monensin sodium] | 299 | 4.17^ab μMoles/24 h fermentation | 299^b μMoles/24 h fermentation | 36.0^a mg/dl | 117.5^c mM | 85.2^c mL/24 h fermentation | 52.4^c moles/100 mol | 28.0^b moles/100 mol | 13.6^d moles/100 mol | 3.0^c moles/100 mol | 1.3^ab moles/100 mol | 1.7^b moles/100 mol | Methane concentration, Percent of Control (AQ 10 ppm, Ionophores 5 ppm, AQ plus Ionophore 10 + 5 ppm, control = 403): 74%
3 | [O]=[Mo](=[O])([O-])[O-] [MoO4] |  | 4.13^ab μMoles/24 h fermentation | 451^a μMoles/24 h fermentation | 37.9^a mg/dl | 123.9^b mM | 94.1^ab mL/24 h fermentation | 55.2^b moles/100 mol | 24.2^c moles/100 mol | 15.1^c moles/100 mol | 2.7^d moles/100 mol | 1.2^b moles/100 mol | 1.6^b moles/100 mol | 
